Measurements from patent publication US20220054384A1, “MICROBIOSTATIC SOAP THAT REDUCES THE TRANSMISSION OF MICROBES” (GPCP IP Holdings LLC, priority 2018, published 2022).

Legend:
[1] = tested on: Staphylococcus aureus ATCC 6538 and Escherichia coli ATCC 15225; assay: Bacteriostatic MIC of release agents (modified standard MIC protocol, tube growth then streak onto TSA plate); format: cell-based; conditions: lower bacteriostatic limit (bacteriostatic MIC): no growth in tube, growth on TSA plate
Text: Release agents for use in the described soaps and hard surface cleaners are those materials that can coat all or part of a microbe or spore wall, but not penetrate the cellular or spore wall, rendering the microbe unable to infect skin or reproduce at the time of application. Not only does the release agent coat the microbe, it also coats skin. Because the microbe coating and skin coating have similar charges, the microbe is repelled from the skin surface into the soap layer. After rinsing the soap, the material is disrupted and releases, allowing regrowth of the microbe. […] However, when the solution is swabbed onto a growth media plate, polymer disruption and release occur, allowing the microbe to resume growth. […] A series of compounds were tested to determine whether microbes exposed to these compositions and rinsed off were still viable to regrow. The standard MIC protocol (Internal NTC Microbiology Lab Method: MB-025) was followed for this work with some modifications. The organisms used were Staphylococcus aureus ATCC® 6538™ and Escherichia coli ATCC® 15225™ (94 TFM). All organisms were purchased from Microbiologics® and grown in the lab on Trypticase Soy Agar (TSA) at 35° C. The organisms were washed off of the agar into 0.1% peptone water and visually matched to a McFarland 0.5 Standard (equal to […]). Ten-fold serial dilutions were prepared for all chemicals tested in Mueller-Hinton II Broth (MH Broth). An initial 1:10 dilution in MH Broth was made and all subsequent dilutions were prepared by removing 1 mL from the previous dilution and transferring to a sterile MH Broth tube. For the initial screening, 1:10 serial dilutions were prepared through 1:1,000,000. One mL of the bacterial solution was added to each dilution tube and vortexed to mix. […] For subsequent round(s) of testing, the parts per million (ppm) of chemical was calculated and dilution tubes were prepared to bracket the ppm of growth/no-growth seen during the first round of testing. Each tube was prepared by adding in the calculated amount of MH Broth and test substance. The inoculation and incubation procedure was followed as stated above. […] For the second round of samples, each tube with no growth was streaked onto a Trypticase Soy Agar (TSA) plate to identify if the organism was still present in the tube but unable to grow in the presence of the chemical. All TSA plates were incubated for 18±4 hours at 37° C. and then observed for growth/no-growth.

[2] = tested on: Staphylococcus aureus ATCC 6538 and Escherichia coli ATCC 15225; assay: as above; format: cell-based; conditions: upper bacteriostatic concentration limit of release agent; no initial growth in solution but growth after swabbing onto growth media plate

Molecule | Lower Limit from 24-hour growth (%) [1] | Upper Limit from 1 min Exposure [2]
Cocamidopropyl hydroxy sultaine | 0.5% | 45.0
Disodium Cocamphodiacetate | 2.0% | 36.0
CCCCCCCCOC(=O)CC(C(=O)OCCCCCCCC)S(=O)(=O)[O-].[Na+] (stereo not shown) [Dioctyl sulfosuccinate sodium salt] | 5.0% | 5.0
CCCCCCCCCCCC(=O)NCCC[N+](C)(C)CC(=O)[O-] [Lauramidopropyle betaine] | 0.1% | 4.0
Cocamidopropyl betaine | 1.0% | 27.0
